Source: patent US20160037782A1, “COMBINATIONS OF ANTIFUNGAL COMPOUNDS AND TEA TREE OIL” (priority 2011, published 2016)

What was measured:
[1] = tested on: rust in garlic plants; assay: Control of rust in organically grown garlic plants, field spray trial (Example 2); assay type: in vivo, Puccinia alli; conditions: 0.25%
Experimental: Organically grown garlic plants were treated with a 53.8% copper hydroxide solution, Timorex Gold, or a mixture of the two. The plants were sprayed six times, on the first day of the trial and then approximately every six days thereafter. Observations were made on days 1 (before spraying), 29 and 40 of the trial. The results are shown in the table below; d.a.a.=days after application; numbers are presented as % of disease severity on leaves. The effectiveness may have been comprised by the relatively large amount of rain that fell during the trial.
(§1) Treatments were applied in a randomized complete block, with 5 replications per treatment. Plot size in each instance was of 6 m length, containing 20 plants. Fungicidal treatment was applied using backpack sprayer equipped with a mist blower (STHIL 340) to spray a volume of 300 liter/ha. Disease severity was evaluated by determining the leaf area covered with rust (disease severity) on each of 20 leaves randomly selected per each replicate. To analyze the results, an arc-sin transformation was performed on the raw data, and analysis of variance (ANOVA) using the SAS GLM procedure was applied to the transformed data. The Tukey-Kramer Test was applied to determine whether differences between treatments were significant. In the tables, “a”, “b” and “c”, refer to differences in statistical analysis that are familiar to users of the Tukey-Kramer test.

[2] = tested on: rust in green onions; assay: Control of rust in organically grown green onions, field spray trial (Example 3); assay type: in vivo, Puccinia alli; conditions: 2.5 g/l
Experimental: as §1
In a manner similar to that in Example 2, the effect of TG and the copper hydroxide solution were tested on organically grown green onions, by application at a rate of 500 l/ha.

[3] = tested on: coffee plant rust; assay: Coffee plant rust: compositions applied to coffee plant leaves, degree and severity of infection observed later (Example 1); assay type: in vivo, Hemileia vastatrix; conditions: applied alone
Experimental: The effect of application of a TTO-containing composition (Timorex Gold®), alone and in combination with tebuconazole (simultaneous and in alternation), on coffee plant rust, was tested, by applying the compositions to coffee plant leaves and observing the degree and severity of infection later.

[4] = 4th evaluation, 1 day after 5th treatment
[5] = 5th evaluation, on day of 7th treatment
[6] = 6th evaluation, 7 days after 7th treatment
[7] = second evaluation, 2 days after second treatment
[8] = third evaluation, on day of fourth treatment

Compound | 40 d.a.a. % green relative to control ([1]; 40 d.a.a.) [%] | 40 d.a.a.: % green ([1]; 40 d.a.a.) [a %] | Day 0 % of infected area ([1]; baseline before spraying) [a %] | Effectiveness in eradicating relative to control ([1]; six days after fifth application) | % of infected area ([1]; six days after fifth application, 300 liter/ha) [b %] | % area infected by rust [2, 4] [b %] | Efficacy of treatment, % [2, 4] [%] | % area infected by rust [2, 5] [b %] | Efficacy of treatment, % [2, 5] [%] | % area infected by rust [2, 6] [b %] | Efficacy of treatment, % [2, 6] [%] | % area infected by rust ([2]; first evaluation, before treatment) [a %] | % area infected by rust [2, 7] [ab %] | Efficacy of treatment, % [2, 7] [%] | % area infected by rust [2, 8] [b %] | Efficacy of treatment, % [2, 8] [%] | retention of leaves by the plants [3] | severity of the disease ([3]; coffee plants)
[Cu+2].[OH-].[OH-] [Copper hydroxide, copper hydroxide] | 206.1 | 60.0 | 0.2 | 53.0 | 27.0 | 8.5 | 70.3 | 12.5 | 76.9 | 18.7 | 75.1 | 0.3 | 1.8 | 62.1 | 2.5 | 79.2 | – | –
CC(C)(C)C(O)(CCc1ccc(Cl)cc1)Cn1cncn1 (stereo not drawn) [tebuconazole] | – | – | – | – | – | – | – | – | – | – | – | – | – | – | – | – | higher retention of leaves | overall lower severity of the disease
